In ChEMBL document CHEMBL5236544, “Furazans in Medicinal Chemistry” (J Med Chem, 2021):
pEC50, pIC50: −log10 of the molar value. Values after ≈ are worked out from the molar mass of the structure shown. Values joined by “and” are separate entries in the source; they are usually repeats but may differ in a detail not shown here. Equal values may be shown once. One block for each molecule: values may come before it.

How the values were obtained:
[1] = test system: Canis familiaris; assay: Cardioprotective activity in dogs assessed as increasing in coronary blood flow at […], iv relative to control; type: functional, Canis lupus familiaris
[2] = test system: Canis familiaris; assay: Cardioprotective activity in dogs assessed as increasing in coronary blood flow at 5.0 ug/kg, iv relative to control; type: functional, Canis lupus familiaris; conditions: dose 5 µg/kg
[3] = test system: Canis familiaris; assay: Cardioprotective activity in dogs assessed as reduction in aortic pressure at […], iv relative to control; type: functional, Canis lupus familiaris; design: scale not given: the % may be the effect or the level left
[4] = test system: Staphylococcus aureus; assay: Antibiofilm activity against Staphylococcus aureus reduction in biofilm formation in the presence of azithromycin at 63 uM relative to control; type: functional; design: scale not given: the % may be the effect or the level left
[5] = test system: Staphylococcus aureus; assay: Antibacterial activity against Staphylococcus aureus assessed as reduction in bacterial growth by broth microdilution method; type: functional
[6] = test system: Staphylococcus aureus; assay: Antibacterial activity against Staphylococcus aureus assessed as reduction in bacterial growth incubated for 1 hrs in presence of azithromycin by colony-counting method; type: functional
[7] = test system: Streptococcus pneumoniae; assay: Antibiofilm activity against Streptococcus pneumoniae reduction in biofilm formation at 63 uM relative to control; type: functional; design: scale not given: the % may be the effect or the level left
[8] = test system: Streptococcus pneumoniae; assay: Antibacterial activity against Streptococcus pneumoniae assessed as reduction in bacterial growth by broth microdilution method; type: functional
[9] = test system: Staphylococcus aureus; assay: Antibiofilm activity against Staphylococcus aureus reduction in biofilm formation at 63 uM relative to control; type: functional; design: scale not given: the % may be the effect or the level left
[10] = test system: Streptococcus pneumoniae; assay: Antibiofilm activity against Streptococcus pneumoniae reduction in biofilm formation in the presence of tobramycin at 13 uM relative to control; type: functional; design: scale not given: the % may be the effect or the level left
[11] = test system: Streptococcus pneumoniae; assay: Antibacterial activity against Streptococcus pneumoniae assessed as reduction in bacterial growth incubated for 1 hrs in presence of tobramycin by colony-counting method; type: functional
[12] = test system: Rattus norvegicus; assay: Antihypertensive activity in spontaneously hypertensive rat model assessed as change in blood pressure at 1 mg/kg, po measured after 10 hrs; type: functional
[13] = organism: Rattus norvegicus; assay: Antihypertensive activity in spontaneously hypertensive rat model assessed as reduction in pulmonary arterial pressure; type: functional
[14] = organism: Rattus norvegicus; assay: Antihypertensive activity in spontaneously hypertensive rat model assessed as reduction in systemic arterial pressure; type: functional
[15] = test system: Rattus norvegicus; assay: Antihypertensive activity in spontaneously hypertensive rat model assessed as change in blood pressure at 1 mg/kg, po measured after 3 hrs; type: functional
[16] = test system: Rattus norvegicus; assay: Antihypertensive activity in spontaneously hypertensive rat model assessed as change in heart rate at 1 mmol/Kg, po measured after 10 hrs; type: functional
[17] = test system: Rattus norvegicus; assay: Antihypertensive activity in spontaneously hypertensive rat model assessed as change in heart rate at 10 mg/Kg, po measured after 6 hrs; type: functional
[18] = test system: Rattus norvegicus; assay: Antihypertensive activity in spontaneously hypertensive rat model assessed as change in heart rate at 1 umol/kg, po measured after 3 hrs; type: functional
[19] = test system: Rattus norvegicus; assay: Antihypertensive activity in spontaneously hypertensive rat model assessed as change in blood pressure at 1 mg/kg, po measured after 6 hrs; type: functional
[20] = target: Vascular endothelial growth factor receptor 2 (Homo sapiens, UniProt P35968); assay: Inhibition of VEGF-R2 (unknown origin)
[21] = target: Insulin-like growth factor 1 receptor (Homo sapiens, UniProt P08069); assay: Inhibition of IGF-1R (unknown origin)
[22] = target: Epidermal growth factor receptor (Homo sapiens, UniProt P00533); assay: Inhibition of EGF-R (unknown origin)
[23] = target: Proto-oncogene tyrosine-protein kinase Src (Homo sapiens, UniProt P12931); assay: Inhibition SRC (unknown origin)
[24] = target: Aurora kinase B (Homo sapiens, UniProt Q96GD4); assay: Inhibition of Aurora B (unknown origin)
[25] = test system: Rattus norvegicus; assay: Antihypertensive activity in spontaneously hypertensive rat model assessed as change in blood pressure at 3 mg/kg, po measured after 3 hrs; type: functional
[26] = test system: Rattus norvegicus; assay: Antihypertensive activity in spontaneously hypertensive rat model assessed as change in blood pressure at 3 mg/kg, po measured after 10 hrs; type: functional
[27] = test system: HASMC; assay: Antiproliferative activity against human HASMC cells assessed as inhibition of cell proliferation measured after 24 hrs by MTT assay; type: functional, cell-based
[28] = test system: Rattus norvegicus; assay: Antihypertensive activity in spontaneously hypertensive rat model assessed as change in blood pressure at 3 mg/kg, po measured after 6 hrs; type: functional
[29] = test system: Rattus norvegicus; assay: Antihypertensive activity in spontaneously hypertensive rat model assessed as change in heart rate at 1 mmol/Kg, po measured after 3 hrs; type: functional
[30] = Stability in rat assessed as intrinsic clearance; type: ADME; conditions: CLH
[31] = Half life in mouse; type: ADME, organism-based; conditions: in vivo
[32] = Oral bioavailability in rat at 3 mg/kg relative to control; type: ADME, organism-based; conditions: in vivo
[33] = test system: HeLa; assay: Antitumor activity against human HeLa cells xenografted in mouse assessed as reduction in tumor growth at 30 mg/kg bid relative to control; type: functional; design: scale not given: the % may be the effect or the level left
[34] = test system: HeLa; assay: Antitumor activity against human HeLa cells xenografted in mouse model assessed as reduction in tumor growth at 75 mg/kg bid relative to control; type: functional; design: scale not given: the % may be the effect or the level left
[35] = test system: Mus musculus; assay: In vivo antibacterial activity against Helicobacter pylori SS1 infected mouse model assessed as reduction in infection at 200 mg/kg, po administered for 8 days relative to control; type: functional; design: scale not given: the % may be the effect or the level left; conditions: time 8 day
[36] = test system: Helicobacter pylori; assay: Antibacterial activity against Helicobacter pylori SS1 assessed as reduction in bacterial growth incubated for 1 hrs in presence of metronidazole by colony-counting method; type: functional
[37] = test system: Helicobacter pylori; assay: Antibacterial activity against Helicobacter pylori SS1 assessed as reduction in bacterial growth in the presence of metronidazole-sensitive by broth microdilution method; type: functional
[38] = test system: Helicobacter pylori; assay: Antibacterial activity against Helicobacter pylori NCTC11637 assessed as reduction in bacterial growth incubated for 1 hrs in presence of metronidazole-resistant by colony-counting method; type: functional
[39] = test system: Helicobacter pylori; assay: Antibacterial activity against Helicobacter pylori NCTC11637 assessed as reduction in bacterial growth incubated for 1 hrs in presence of metronidazole by colony-counting method; type: functional
[40] = test system: HEK-293T; assay: Antiproliferative activity against human HEK293T cells assessed as inhibition of cell proliferation by MTT assay; type: functional, cell-based
[41] = test system: HEK-293T; assay: Antitumor activity against human HEK293T cells xenografted in mouse model assessed as reduction in tumor growth at 100 mg/kg bid relative to control; type: functional; design: scale not given: the % may be the effect or the level left
[42] = Antiproliferative activity against mouse Lewis lung carcinoma cell line cells assessed as inhibition of cell proliferation by MTT assay; type: functional, cell-based
[43] = Half life in rat, iv; type: ADME; conditions: in vivo
[44] = target: Histone deacetylase; assay: Inhibition of HDAC (unknown origin); type: protein assay, Homo sapiens
[45] = test system: A549; assay: Antitumor activity against human A549 cells xenografted in mouse model assessed as reduction in tumor growth at 100 mg/kg bid relative to control; type: functional; design: scale not given: the % may be the effect or the level left
[46] = test system: HCT-116; assay: Antiproliferative activity against human HCT-116 cells assessed as inhibition of cell proliferation by MTT assay; type: functional, cell-based
[47] = test system: A549; assay: Antiproliferative activity against human A549 cells assessed as inhibition of cell proliferation by MTT assay; type: functional, cell-based
[48] = test system: Rattus norvegicus; assay: Antihypertensive activity in spontaneously hypertensive rat model assessed as change in blood pressure at 10 mg/kg, po measured after 3 hrs; type: functional
[49] = test system: Rattus norvegicus; assay: Antihypertensive activity in spontaneously hypertensive rat model assessed as change in blood pressure at 10 mg/kg, po measured after 6 hrs; type: functional
[50] = test system: Rattus norvegicus; assay: Antihypertensive activity in spontaneously hypertensive rat model assessed as change in blood pressure at 10 mg/kg, po measured after 10 hrs; type: functional

Chain of Aurora kinase B (Q96GD4 whole entry): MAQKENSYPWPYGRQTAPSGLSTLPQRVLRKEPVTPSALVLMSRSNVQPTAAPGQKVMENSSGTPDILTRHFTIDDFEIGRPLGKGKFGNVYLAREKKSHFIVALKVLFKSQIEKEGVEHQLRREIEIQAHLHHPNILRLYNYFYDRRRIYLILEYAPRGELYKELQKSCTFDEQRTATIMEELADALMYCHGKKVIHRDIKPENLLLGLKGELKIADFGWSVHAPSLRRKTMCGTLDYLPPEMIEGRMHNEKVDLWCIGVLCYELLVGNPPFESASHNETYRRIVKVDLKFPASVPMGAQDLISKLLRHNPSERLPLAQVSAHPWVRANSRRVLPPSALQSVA
Chain of Proto-oncogene tyrosine-protein kinase Src (P12931 2-536 limits assumed): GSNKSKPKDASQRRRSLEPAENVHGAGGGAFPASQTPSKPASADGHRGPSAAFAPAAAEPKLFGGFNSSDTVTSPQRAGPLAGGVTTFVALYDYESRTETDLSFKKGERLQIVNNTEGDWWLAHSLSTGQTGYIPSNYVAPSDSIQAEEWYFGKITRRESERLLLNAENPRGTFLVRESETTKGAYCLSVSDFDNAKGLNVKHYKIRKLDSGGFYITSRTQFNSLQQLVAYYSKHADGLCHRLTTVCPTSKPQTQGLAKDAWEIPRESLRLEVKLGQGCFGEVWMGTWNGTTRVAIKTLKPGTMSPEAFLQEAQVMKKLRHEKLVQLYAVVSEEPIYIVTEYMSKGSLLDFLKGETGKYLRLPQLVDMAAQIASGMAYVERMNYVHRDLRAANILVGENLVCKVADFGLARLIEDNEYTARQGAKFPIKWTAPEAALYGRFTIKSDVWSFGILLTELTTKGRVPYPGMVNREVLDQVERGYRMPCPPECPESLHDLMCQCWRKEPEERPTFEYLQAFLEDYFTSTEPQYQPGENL
Chain of Insulin-like growth factor 1 receptor (P08069 31-736 limits assumed): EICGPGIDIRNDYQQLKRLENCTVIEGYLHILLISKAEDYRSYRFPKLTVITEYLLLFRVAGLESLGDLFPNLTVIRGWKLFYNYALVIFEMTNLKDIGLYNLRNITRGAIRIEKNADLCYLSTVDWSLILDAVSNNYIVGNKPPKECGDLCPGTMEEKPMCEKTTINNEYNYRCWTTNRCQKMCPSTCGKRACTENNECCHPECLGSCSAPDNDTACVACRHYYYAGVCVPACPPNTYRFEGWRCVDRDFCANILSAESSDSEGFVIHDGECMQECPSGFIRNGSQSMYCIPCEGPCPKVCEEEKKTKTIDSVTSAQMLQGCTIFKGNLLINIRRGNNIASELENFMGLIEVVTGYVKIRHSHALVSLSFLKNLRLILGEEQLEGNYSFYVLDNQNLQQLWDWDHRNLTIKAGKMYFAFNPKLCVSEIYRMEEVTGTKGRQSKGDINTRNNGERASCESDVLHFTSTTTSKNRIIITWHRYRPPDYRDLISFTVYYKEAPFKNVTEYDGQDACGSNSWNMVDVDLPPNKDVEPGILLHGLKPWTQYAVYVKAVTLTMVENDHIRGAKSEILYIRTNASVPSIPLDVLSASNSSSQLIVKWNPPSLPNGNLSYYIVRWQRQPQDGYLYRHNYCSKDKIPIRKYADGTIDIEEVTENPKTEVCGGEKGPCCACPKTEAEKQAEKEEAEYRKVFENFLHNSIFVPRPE
Chain of Insulin-like growth factor 1 receptor (P08069 741-1367 limits assumed): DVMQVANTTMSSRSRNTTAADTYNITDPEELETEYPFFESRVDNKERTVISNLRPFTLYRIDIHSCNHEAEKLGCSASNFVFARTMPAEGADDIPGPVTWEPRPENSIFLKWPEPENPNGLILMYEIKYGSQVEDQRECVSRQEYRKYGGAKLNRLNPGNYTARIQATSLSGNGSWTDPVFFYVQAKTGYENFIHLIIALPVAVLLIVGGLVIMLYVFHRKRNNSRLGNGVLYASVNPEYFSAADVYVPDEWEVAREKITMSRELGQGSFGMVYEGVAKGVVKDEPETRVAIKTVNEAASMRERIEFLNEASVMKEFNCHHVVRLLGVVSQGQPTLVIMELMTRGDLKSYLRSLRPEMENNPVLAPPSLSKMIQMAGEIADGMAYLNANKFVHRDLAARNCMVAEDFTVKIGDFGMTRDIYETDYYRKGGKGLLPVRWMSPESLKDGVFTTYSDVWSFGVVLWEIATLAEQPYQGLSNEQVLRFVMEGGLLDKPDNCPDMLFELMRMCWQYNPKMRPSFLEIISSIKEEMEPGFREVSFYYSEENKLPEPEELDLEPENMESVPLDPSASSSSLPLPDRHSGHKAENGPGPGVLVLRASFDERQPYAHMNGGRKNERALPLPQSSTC
Chain of Epidermal growth factor receptor (P00533 whole entry): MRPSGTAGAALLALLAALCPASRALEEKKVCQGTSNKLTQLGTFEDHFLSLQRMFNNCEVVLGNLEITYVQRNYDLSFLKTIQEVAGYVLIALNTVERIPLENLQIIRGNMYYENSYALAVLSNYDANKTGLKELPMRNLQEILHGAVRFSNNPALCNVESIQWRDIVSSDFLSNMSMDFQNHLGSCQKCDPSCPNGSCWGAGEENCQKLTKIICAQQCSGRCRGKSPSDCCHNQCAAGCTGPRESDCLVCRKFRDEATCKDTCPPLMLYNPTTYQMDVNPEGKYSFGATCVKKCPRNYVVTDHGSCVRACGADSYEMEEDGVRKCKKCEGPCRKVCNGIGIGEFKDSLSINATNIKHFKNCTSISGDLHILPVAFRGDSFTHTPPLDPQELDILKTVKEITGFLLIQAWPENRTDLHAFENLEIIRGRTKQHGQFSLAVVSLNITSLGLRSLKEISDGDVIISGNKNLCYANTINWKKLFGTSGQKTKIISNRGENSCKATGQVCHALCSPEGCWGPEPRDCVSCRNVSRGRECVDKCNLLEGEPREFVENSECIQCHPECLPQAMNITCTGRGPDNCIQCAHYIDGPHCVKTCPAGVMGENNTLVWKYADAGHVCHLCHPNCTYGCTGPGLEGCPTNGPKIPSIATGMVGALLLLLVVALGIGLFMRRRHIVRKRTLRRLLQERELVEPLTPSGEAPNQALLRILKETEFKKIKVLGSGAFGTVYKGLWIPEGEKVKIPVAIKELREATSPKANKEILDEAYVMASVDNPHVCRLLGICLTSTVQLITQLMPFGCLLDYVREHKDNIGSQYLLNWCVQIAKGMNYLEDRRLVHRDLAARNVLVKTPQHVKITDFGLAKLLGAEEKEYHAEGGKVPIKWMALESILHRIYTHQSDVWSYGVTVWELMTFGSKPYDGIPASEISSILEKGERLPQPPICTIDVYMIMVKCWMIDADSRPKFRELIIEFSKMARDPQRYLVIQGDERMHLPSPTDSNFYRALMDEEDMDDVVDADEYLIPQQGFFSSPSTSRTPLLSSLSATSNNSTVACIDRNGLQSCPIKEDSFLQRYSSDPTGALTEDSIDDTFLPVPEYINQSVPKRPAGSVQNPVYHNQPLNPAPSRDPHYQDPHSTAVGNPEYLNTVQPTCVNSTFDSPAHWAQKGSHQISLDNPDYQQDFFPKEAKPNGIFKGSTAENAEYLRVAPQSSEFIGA
Chain of Vascular endothelial growth factor receptor 2 (P35968 whole entry): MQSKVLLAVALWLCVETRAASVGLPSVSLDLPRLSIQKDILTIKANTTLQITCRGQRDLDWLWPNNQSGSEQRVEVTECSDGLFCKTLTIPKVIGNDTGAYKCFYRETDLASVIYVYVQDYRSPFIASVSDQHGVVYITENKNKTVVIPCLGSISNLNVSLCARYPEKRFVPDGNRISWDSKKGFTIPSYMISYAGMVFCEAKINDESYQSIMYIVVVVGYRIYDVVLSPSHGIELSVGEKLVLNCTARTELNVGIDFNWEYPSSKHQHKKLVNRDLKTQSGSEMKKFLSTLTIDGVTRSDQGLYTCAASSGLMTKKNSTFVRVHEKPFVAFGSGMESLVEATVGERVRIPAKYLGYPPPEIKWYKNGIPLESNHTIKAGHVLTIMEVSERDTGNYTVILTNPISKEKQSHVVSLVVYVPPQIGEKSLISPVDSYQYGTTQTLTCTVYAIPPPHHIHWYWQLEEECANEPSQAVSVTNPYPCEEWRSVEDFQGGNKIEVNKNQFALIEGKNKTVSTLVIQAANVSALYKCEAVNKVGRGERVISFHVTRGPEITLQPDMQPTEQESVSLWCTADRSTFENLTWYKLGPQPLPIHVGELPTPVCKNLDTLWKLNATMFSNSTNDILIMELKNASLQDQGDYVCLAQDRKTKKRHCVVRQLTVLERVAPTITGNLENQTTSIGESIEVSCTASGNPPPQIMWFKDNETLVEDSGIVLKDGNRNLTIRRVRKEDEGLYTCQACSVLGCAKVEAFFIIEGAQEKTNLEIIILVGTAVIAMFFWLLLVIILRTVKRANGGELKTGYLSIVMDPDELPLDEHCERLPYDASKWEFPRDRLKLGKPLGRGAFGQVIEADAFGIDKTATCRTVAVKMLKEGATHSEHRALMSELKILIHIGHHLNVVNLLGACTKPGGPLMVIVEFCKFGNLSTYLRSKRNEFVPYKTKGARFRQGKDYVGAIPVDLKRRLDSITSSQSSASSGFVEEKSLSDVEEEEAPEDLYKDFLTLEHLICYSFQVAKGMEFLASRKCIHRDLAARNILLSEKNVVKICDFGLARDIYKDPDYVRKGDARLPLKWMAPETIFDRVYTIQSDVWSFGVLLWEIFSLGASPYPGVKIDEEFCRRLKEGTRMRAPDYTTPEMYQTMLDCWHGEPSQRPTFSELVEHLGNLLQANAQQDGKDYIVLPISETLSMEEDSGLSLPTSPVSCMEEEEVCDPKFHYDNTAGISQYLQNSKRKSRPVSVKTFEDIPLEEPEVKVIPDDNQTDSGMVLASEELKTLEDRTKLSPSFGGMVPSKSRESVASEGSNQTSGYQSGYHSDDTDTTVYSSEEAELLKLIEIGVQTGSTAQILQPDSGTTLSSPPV

SMILES: CC1(C)Oc2cc3nonc3cc2[C@@H](N2CCCCC2=O)[C@@H]1O
Activity [1]: 34.3% | Activity [2]: 33.3% | Activity [3]: -7.5%

MIC [5]: 250 µM (≈ 65.3 µg/mL) | MIC [6]: 200 µM | MIC [8]: 250 µM (≈ 65.3 µg/mL) | MIC [11]: 50 µM
SMILES: N=C(N/C(=N/O)c1nonc1N)c1ccccc1N
Activity [4]: 48% | Activity [7]: 73% | Activity [9]: 77% | Activity [10]: 50%

SMILES: CCn1c(-c2nonc2N)nc2cncc(C(=O)N3CC[C@H](N)C3)c21
Activity [12]: -5 mmHg | Activity [13]: -13 mmHg | Activity [14]: -40 mmHg | Activity [15]: -20 mmHg | Activity [16]: -25 bpm | Activity [17]: -40 bpm | Activity [18]: 20 bpm | Activity [19]: -20 mmHg

pIC50 [20]: > 6.00 | pIC50 [21]: > 6.00 | pIC50 [22]: > 6.00 | pIC50 [23]: > 6.00 | pIC50 [24]: > 6.00
SMILES: O=C(O)c1cc(-c2ccc(/C=N/Nc3nc4nonc4nc3Nc3ccccc3)o2)ccc1Cl

SMILES: O=S(=O)(c1cccc2cnccc12)N1CCCNCC1 [FASUDIL]
Activity [25]: -30 mmHg | Activity [26]: 0 mmHg | pIC50 [27]: 5.89 | Activity [28]: -20 mmHg | Activity [16]: -10 bpm | Activity [17]: -10 bpm | Activity [29]: -50 bpm

CLint scaled [30]: 11.7 mL/min/kg | half-life [31]: < 0.5 h | bioavailability [32]: 11%
SMILES: NS(=O)(=O)NCCNc1nonc1/C(=N/O)Nc1ccc(F)c(Br)c1 [EPACADOSTAT]
Activity [33]: 56% | Activity [34]: 50%

SMILES: COc1ccc(C[S+]([O-])c2ccc(N)c3nonc23)cc1 (stereo not drawn)
Activity [35]: 60% | MIC [36]: 2.9 µM | MIC [37]: 105 µM | MIC [38]: 53 µM | MIC [39]: 187 µM

half-life [31]: 3.8 h
SMILES: NS(=O)(=O)N1CCC[C@@H](CNc2nonc2/C(=N/O)Nc2ccc(F)c(Br)c2)C1
pEC50 [40]: 7.16 | Activity [41]: 25%

half-life [43]: 3.4 h | IC50 [44]: 0.067 µM | pEC50 [46]: 5.29 | pEC50 [47]: 6.77
SMILES: Nc1ccccc1NC(=O)c1ccc(C(=O)NCCNc2nonc2/C(=N/O)Nc2ccc(F)c(Br)c2)cc1
pEC50 [42]: 4.74 | Activity [45]: 56% and 54%

SMILES: C[C@@H](N)[C@H]1CC[C@H](C(=O)Nc2ccncc2)CC1 [Y-27632]
Activity [13]: -10 mmHg | Activity [48]: -25 mmHg | Activity [14]: -32 mmHg | Activity [49]: -10 mmHg | Activity [50]: -5 mmHg | Activity [16]: 0 bpm | Activity [17]: 10 bpm | Activity [29]: 75 bpm
